Values after ≈ are worked out from the molar mass of the structure shown. Read-outs that look alike come from different tables or passages of the source.
How the values were obtained:
[1] = tested on: S. pyogenes CIP 56.41T; assay: Antibacterial activity (MIC/MBC); assay type: cell-based, Streptococcus pyogenes; conditions: Streptococcus pyogenes, CIP56, S. pyogenes CIP 56.41T; for MIC: read-out: MIC
[2] = tested on: two strains of penicillin-resistant Streptococcus pneumoniae PRSP (CIP 104471 and a clinical isolate); assay: Antibacterial activity (MIC/MBC), summary in text; assay type: cell-based; conditions: S. pneumoniae PRSP (CIP 104471 and a clinical isolate)
[3] = tested on: Staphylococcus aureus MSSA CIP 4.83; assay: Antibacterial activity (MIC/MBC); assay type: cell-based; conditions: for MBC: read-out: MBC
[4] = tested on: H. influenzae CIP 102514; assay: Antibacterial activity (MIC/MBC); assay type: cell-based, Haemophilus influenzae; conditions: Haemophilus influenzae, CIP102514
[5] = tested on: E. faecalis VRE CIP 104676; assay: Antibacterial activity (MIC/MBC); assay type: cell-based, Enterococcus faecalis; conditions: Enterococcus faecalis, E. faecalis VRE CIP 104676
[6] = tested on: Staphylococcus aureus MSSA 53.154; assay: Murine experimental septicaemia, in vivo efficacy; parameters: species or system mice; conditions: sc, mice, subcutaneously at 1 and 6 h post infection, survival on day 9, hybrid molecules formulated in water as their sodium salt, read-out: ED50
Protocol: Experimental septicaemia was induced in mice as follows. Briefly, male Swiss OF1 mice (IFFA CREDO-Charles River) weighing 18 to 20 grams were infected intraperitoneally with 0.5 mL of a bacterial suspension containing 8.5×10^7 cfu of Staphylococcus aureus MSSA 53.154 (Institut Pasteur). The hybrid molecules were administered subcutaneously at 1 and 6 h post infection. Control and treatment groups at each dose were composed of seven mice. All the infected but untreated control mice died within 9 days. The 50% effective dose (ED50) values were calculated by a computerized program (GraphPad) from the survival rates on day 9 after infection.

[7] = tested on: M. catarrhalis CIP73.21T; assay: Antibacterial activity (MIC/MBC); assay type: cell-based; conditions: Moraxella catarrhalis
[8] = tested on: S. pneumoniae PRSP clinical isolate; assay: Antibacterial activity (MIC/MBC); assay type: cell-based, Streptococcus pneumoniae; conditions: Streptococcus pneumoniae; for MIC: PRSP
[9] = tested on: S. pneumoniae PSSP CIP 6.92; assay: Antibacterial activity (MIC/MBC); assay type: cell-based; conditions: Streptococcus pneumoniae, CIP6
[10] = Stability in solution at pH 1 (HPLC purity over time); assay type: physicochemical; conditions: for Purity of the hybrid molecules (as a percentage) as a function of time (hours): pH 1, 37° C.
Protocol: The stability of the aminoquinoline-cephalosporin_hybrid molecules given as examples was determined in solution at 37° C., at physiological pH (pH 7, phosphate buffer/acetonitrile, 75/25 v/v) and at acidic pH (pH 1, 0.1 M HCl/ethanol, 70/30 v/v) by high pressure liquid chromatography coupled to a UV-visible detector (Beckman Coulter ODS C18 column, 5 μm, 4.6×250 mm; eluents: A: 0.1% TFA, B: CH3CN/H2O 90/10 0.1% TFA, gradient: from 10% to 100% of B in 30 minutes, and then 100% of B for 10 minutes, flow rate 1 mL/minutes, λ=254 nm, volume injected: 10 μL).

[11] = tested on: S. pneumoniae PRSP CIP 104471; assay: Antibacterial activity (MIC/MBC); assay type: cell-based, Streptococcus pneumoniae; conditions: Streptococcus pneumoniae; for MIC: read-out: MIC
[12] = Oral toxicity in mice; assay type: in vivo; conditions: counted on day 30
Protocol: The test compound: PA 1046 (example 5) was emulsified in a mixture of Tween 80/methylcellulose in water (0.5% of Tween 80, 0.6% of methylcellulose and 98.9% of water) at different concentrations. The emulsion was administered orally to 6-week-old female Swiss CD1 mice (Janvier) on day 0 and on day 2. The number of survival mice was counted on day 30.

[13] = tested on: Human lung fibroblast cells (ATCC CCL-171); assay: Cytotoxicity (MTT) assay; conditions: human, 18 hr
Protocol: Cellular toxicity was measured by a colorimetric assay that makes use of the tetrazolium salt, MTT. Human lung fibroblast cells (ATCC CCL-171) were plated in 96-well plates at 10^4 cells per well and incubated under 5% CO2 at 37° C. for 24 hr to allow adherence of cells to the plate. Test compounds were prepared as a stock solution at 1 mg/mL in 1% DMSO/water and diluted with water for the serial dilutions (500-7.8 μg/mL). Cells underwent a 18 hr treatment under 5% CO2 at 37° C. with experimental drugs. Corresponding controls received either no drug treatment or treatment with SDS (sodium dodecyl sulfate). The optical density of each sample was read on a microplate spectrophotometer reader at 600 nm and cell survival was expressed as a fraction of that of untreated controls. A drug is said cytotoxic when this fraction is ≦−30%

[14] = S. aureus CIP 4.83, without serum (Table VI)
[15] = Staphylococcus aureus, S. aureus CIP 4.83, +50% human serum, read-out: MIC in the presence of human serum
[16] = Staphylococcus aureus, S. aureus MSSA CIP 4.83
[17] = Staphylococcus aureus, S. aureus MSSA CIP 4.83, read-out: MIC
[18] = +50% human serum, read-out: MIC in the presence of human serum
[19] = without serum (Table VI), read-out: MIC

CO/N=C(\C(=O)N[C@@H]1C(=O)N2C(C(=O)O)=C(CSc3nc(=O)c(=O)[nH]n3C)CS[C@H]12)c1csc(N)n1 [Ceftriaxone, reference compound]
MBC [1]: 0.006 µg/mL (≈ 0.0108 µM) | MIC [1]: 0.006 µg/mL (≈ 0.0108 µM) | MIC [2]: 0.05 µg/mL (≈ 0.0902 µM) | MIC [3, 14]: 0.20 µg/mL (≈ 0.361 µM) | MIC [3, 15]: 25 µg/mL | MBC [3, 16]: > 50 µg/mL | MIC [3, 17]: 0.2 µg/mL (≈ 0.361 µM) | MBC ([4]; H. influenzae CIP 102514, read-out: MBC): 1.56 µg/mL (≈ 2.81 µM) | MIC ([4]; H. influenzae CIP 102514, read-out: MIC): < 0.001 µg/mL | MBC [5]: 50 µg/mL (≈ 90.2 µM) | MIC ([5]; read-out: MIC): 1.56 µg/mL (≈ 2.81 µM) | ED50 [6]: 0.09 mg/kg | MBC [7]: 0.0015 µg/mL (≈ 0.0027 µM) | MIC [7]: < 0.01 µg/mL | MBC [8]: 0.78 µg/mL (≈ 1.41 µM) | MIC [8, 18]: 12.5 µg/mL | MIC ([8]; read-out: MIC): 0.39 µg/mL (≈ 0.703 µM) | MIC [8, 19]: 0.78 µg/mL (≈ 1.41 µM) | MBC [9]: 0.006 µg/mL (≈ 0.0108 µM) | MIC [9]: 0.006 µg/mL (≈ 0.0108 µM) | half-life ([10]; 0.1 M HCl/ethanol solution, pH 1 in solution at 37° C.): < 2 h | Purity of the hybrid molecules (as a percentage) as a function of time (hours) ([10]; time 0 h): 100% | Purity of the hybrid molecules (as a percentage) as a function of time (hours) ([10]; time 1 h): 67% | Purity of the hybrid molecules (as a percentage) as a function of time (hours) ([10]; time 2 h): 46% | Purity of the hybrid molecules (as a percentage) as a function of time (hours) ([10]; time 4 h): 21% | Purity of the hybrid molecules (as a percentage) as a function of time (hours) ([10]; time 6 h): 4% | time until practically totally degraded ([10]; pH 1 in solution at 37° C.): less than 6 hr | MBC [11]: 0.39 µg/mL (≈ 0.703 µM) | MIC [11]: 0.05 µg/mL (≈ 0.0902 µM)

CC(=O)OCC1=C(C(=O)O)N2C(=O)[C@@H](NC(=O)CNc3ccnc4cc(Cl)ccc34)[C@H]2SC1 [PA 1046, (6R,7R)-3-Acetoxymethyl-7-[2-(7-chloroquinolin-4-ylamino)-acetylamino]-8-oxo-5-thia-1-aza-bicyclo[4.2.0]oct-2-ene-2-carboxylic acid]
Survival (%) ([12]; 100 mg/kg orally on day 0 and day 2, mice): 5/5 (100%) | Survival (%) ([12]; 200 mg/kg orally on day 0 and day 2, mice): 5/5 (100%) | % of survival cells compared to the untreated controls ([13]; 7.8 μg/mL): −5.6% | % of survival cells compared to the untreated controls ([13]; 15.6 μg/mL): −8.3% | % of survival cells compared to the untreated controls ([13]; 31.2 μg/mL): −5.6% | % of survival cells compared to the untreated controls ([13]; 62.5 μg/mL): −9.0% | % of survival cells compared to the untreated controls ([13]; 125 μg/mL): −14.1% | % of survival cells compared to the untreated controls ([13]; 250 μg/mL): −17.8% | % of survival cells compared to the untreated controls ([13]; 500 μg/mL): −18.1% | MBC [1]: 0.003 µg/mL (≈ 0.00611 µM) | MIC [1]: 0.003 µg/mL (≈ 0.00611 µM) | MIC [3, 14]: 0.2 µg/mL (≈ 0.407 µM) | MIC [3, 15]: 0.78 µg/mL | MBC [3, 16]: > 50 µg/mL | MIC [3, 17]: 0.2 µg/mL (≈ 0.407 µM) | MBC [4]: 25 µg/mL (≈ 50.9 µM) | MBC [5]: 50 µg/mL (≈ 102 µM) | ED50 [6]: 0.04 mg/kg | MBC [7]: 0.78 µg/mL (≈ 1.59 µM) | MIC [7]: 0.78 µg/mL (≈ 1.59 µM) | MBC [8]: 0.1 µg/mL (≈ 0.204 µM) | MIC [8, 18]: 1.56 µg/mL | MIC ([8]; read-out: MIC): 0.05 µg/mL (≈ 0.102 µM) | MIC [8, 19]: 0.2 µg/mL (≈ 0.407 µM) | MBC [9]: 0.012 µg/mL (≈ 0.0244 µM) | MIC [9]: 0.012 µg/mL (≈ 0.0244 µM) | MBC [11]: 0.025 µg/mL (≈ 0.0509 µM) | MIC [11]: 0.006 µg/mL (≈ 0.0122 µM)
